Results published in ChEMBL document CHEMBL1201862, “PubChem BioAssay data set” (2004).
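Protocol summary: plate cells (96-well), add compound at 5 concentrations, incubate 48 h, interpolate endpoints linearly. GI50 is the concentration that inhibits growth by half.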 The source made the active and inactive calls. Cut-off read from the data, not from the text of the source: active = GI50 up to about 1.1 µM and inactive = higher.

Key:
Assay in all cases: NCI-60 cell line screen, 48 h
NCI-H226 = test system: NCI-H226
NCI-H522 = test system: NCI-H522
HL-60 = test system: HL-60
SK-OV-3 = test system: SK-OV-3
U-251 = test system: U-251
SR = test system: SR
OVCAR-3 = test system: OVCAR-3
K562 = test system: K562
MOLT-4 = test system: MOLT-4
SF-539 = test system: SF-539
UO-31 = test system: UO-31
786-0 = test system: 786-0
HT-29 = test system: HT-29
NCI-H460 = test system: NCI-H460
SNB-19 = test system: SNB-19
SN12C = test system: SN12C
HOP-62 = test system: HOP-62
HCT-116 = test system: HCT-116
CAKI-1 = test system: CAKI-1
KM12 = test system: KM12

Row | Compound | GI50 (NCI-H226) | GI50 (NCI-H522) | GI50 (HL-60) | GI50 (SK-OV-3) | GI50 (U-251) | GI50 (SR) | GI50 (OVCAR-3) | GI50 (K562) | GI50 (MOLT-4) | GI50 (SF-539) | GI50 (UO-31) | GI50 (786-0) | GI50 (HT-29) | GI50 (NCI-H460) | GI50 (SNB-19) | GI50 (SN12C) | GI50 (HOP-62) | GI50 (HCT-116) | GI50 (CAKI-1) | GI50 (KM12)
1 | CCOP(=O)(CCCC(O)CNc1nc(N)nc(Cl)c1/N=N/c1ccc(Cl)cc1)OCC (stereo unspecified) | 7.05 µM (inactive) | 5.69 µM (inactive) | 1.75 µM (inactive) | 3.19 µM (inactive) | 8.57 µM (inactive) | 2.64 µM (inactive) | 5.73 µM (inactive) | 4.63 µM (inactive) | 3.24 µM (inactive) | 9.25 µM (inactive) | 3.56 µM (inactive) | 5.27 µM (inactive) | 9.73 µM (inactive) | 11.1 µM (inactive) | 10.6 µM (inactive) | 5.15 µM (inactive) | 9.89 µM (inactive) | 8.28 µM (inactive) | 3.02 µM (inactive) | 11.2 µM (inactive)
2 | [O-][n+]1ccccc1S [PYRITHIONE ZINC] | 10.2 µM (inactive) | 0.107 µM (active) | 0.232 µM (active) | 17.4 µM (inactive) | 1.34 µM (inactive) | 0.168 µM (active) | 0.304 µM (active) | 0.107 µM (active) | 0.0973 µM (active) | 1.97 µM (inactive) | 2.43 µM (inactive) | 0.343 µM (active) | 0.176 µM (active) | 1.63 µM (inactive) | 5.2 µM (inactive) | 1.87 µM (inactive) | 4.34 µM (inactive) | 0.5 µM (active) | 5.13 µM (inactive) | 1.38 µM (inactive)
3 | Cc1ccc2c(c1)/C(=N/Nc1ccccc1[N+](=O)[O-])C(=O)N2 | 8.41 µM (inactive) | 2.31 µM (inactive) | > 100 µM (inactive) | 4.68 µM (inactive) | 4.07 µM (inactive) | 4.06 µM (inactive) | 4.85 µM (inactive) | 27.9 µM (inactive) | > 100 µM (inactive) | 2.11 µM (inactive) | 2.05 µM (inactive) | 2.11 µM (inactive) | 31.6 µM (inactive) | 3.89 µM (inactive) | 37.2 µM (inactive) | 3.82 µM (inactive) | 2.82 µM (inactive) | 3.01 µM (inactive) | 3.32 µM (inactive) | 4.19 µM (inactive)
4 | COC1=CC(=O)c2ccccc2C1(CCC=C(C)C)C1=NC(C)(C)CO1 (stereo unspecified) | > 100 µM (inactive) | 42.4 µM (inactive) | 23.7 µM (inactive) | 86.5 µM (inactive) | 80.4 µM (inactive) | 40.3 µM (inactive) | > 100 µM (inactive) | 28.4 µM (inactive) | 31.7 µM (inactive) | > 100 µM (inactive) | 28.6 µM (inactive) | > 100 µM (inactive) | 81.8 µM (inactive) | > 100 µM (inactive) | 84.9 µM (inactive) | 94.6 µM (inactive) | > 100 µM (inactive) | 48.4 µM (inactive) | > 100 µM (inactive) | > 100 µM (inactive)
5 | CN(C)CCOc1ccc2[nH]c(C(=O)N3CC(CCl)c4c3cc(N)c3ccccc43)cc2c1 (stereo unspecified) | < 0.01 µM (active) | < 0.01 µM (active) | < 0.01 µM (active) | < 0.01 µM (active) | < 0.01 µM (active) | < 0.01 µM (active) | < 0.01 µM (active) | < 0.01 µM (active) | < 0.01 µM (active) | < 0.01 µM (active) | < 0.01 µM (active) | < 0.01 µM (active) | < 0.01 µM (active) | < 0.01 µM (active) | < 0.01 µM (active) | < 0.01 µM (active) | < 0.01 µM (active) | < 0.01 µM (active) | < 0.01 µM (active) | < 0.01 µM (active)
6 | Cc1cc(-n2c(/C=C/c3ccc(Cl)cc3)nc3cc(Cl)ccc3c2=O)on1 | 12.4 µM (inactive) | 23.2 µM (inactive) | > 50 µM (inactive) | 14.9 µM (inactive) | 6.4 µM (inactive) | 0.005 µM (active) | 10.1 µM (inactive) | > 50 µM (inactive) | > 50 µM (inactive) | 25.6 µM (inactive) | 3.61 µM (inactive) | 1.47 µM (inactive) | > 50 µM (inactive) | 5.12 µM (inactive) | 9.86 µM (inactive) | 20.5 µM (inactive) | 7.62 µM (inactive) | 6.1 µM (inactive) | > 50 µM (inactive) | > 50 µM (inactive)
7 | CCCCCCC/C=C1\CCC(CN(C)C)C1=O (stereo unspecified) | 22.4 µM (inactive) | 5.48 µM (inactive) | 3.02 µM (inactive) | 23.7 µM (inactive) | 17.5 µM (inactive) | 3.47 µM (inactive) | 9.38 µM (inactive) | 2.83 µM (inactive) | 2.47 µM (inactive) | 16.6 µM (inactive) | 15.6 µM (inactive) | 1.76 µM (inactive) | 14.6 µM (inactive) | 19.1 µM (inactive) | 16.9 µM (inactive) | 9.1 µM (inactive) | 17.6 µM (inactive) | 7.23 µM (inactive) | 16.3 µM (inactive) | 4.07 µM (inactive)
8 | COc1cc(/C=C/C(=O)Oc2ccc(NC(C)=O)cc2)ccc1C(=O)OCc1ccccc1 | > 100 µM (inactive) | > 85.9 µM (inactive) | > 72.3 µM (inactive) | 48.4 µM (inactive) | 41 µM (inactive) | > 100 µM (inactive) | > 100 µM (inactive) | > 100 µM (inactive) | > 85.3 µM (inactive) | 36.3 µM (inactive) | > 100 µM (inactive) | 39.6 µM (inactive) | > 100 µM (inactive) | > 73.1 µM (inactive) | 52.7 µM (inactive) | > 92.5 µM (inactive) | 53.8 µM (inactive) | > 100 µM (inactive) | > 93.3 µM (inactive) | > 100 µM (inactive)
9 | O=C(NCCNCCCNC(=O)c1cc(-c2ccccc2)nc2ccccc12)c1cccc(OCc2ccccc2)c1OCc1ccccc1 | 1.69 µM (inactive) | 1.73 µM (inactive) | 1.6 µM (inactive) | 1.71 µM (inactive) | 1.94 µM (inactive) | 0.889 µM (active) | 1.95 µM (inactive) | 1.74 µM (inactive) | 1.85 µM (inactive) | 1.77 µM (inactive) | 1.66 µM (inactive) | 1.71 µM (inactive) | 1.63 µM (inactive) | 2.13 µM (inactive) | 1.78 µM (inactive) | 1.77 µM (inactive) | 1.65 µM (inactive) | 1.71 µM (inactive) | 1.61 µM (inactive) | 1.83 µM (inactive)
10 | Brc1sc(Br)c2c1[C@H](Br)C[C@@H]2Br | 23.1 µM (inactive) | 16.3 µM (inactive) | 30.7 µM (inactive) | 59.8 µM (inactive) | 36.6 µM (inactive) | 22.4 µM (inactive) | 41.9 µM (inactive) | 39.4 µM (inactive) | 8.97 µM (inactive) | 19.1 µM (inactive) | 19.6 µM (inactive) | 29.9 µM (inactive) | > 100 µM (inactive) | 27.5 µM (inactive) |  | 31.1 µM (inactive) | 64.9 µM (inactive) | 37.2 µM (inactive) | 33.8 µM (inactive) | 44.9 µM (inactive)
11 | Cc1c(Cl)nc(Cl)nc1Cl | 3.21 µM (inactive) | 0.044 µM (active) | 1.94 µM (inactive) | 3.91 µM (inactive) | 1.77 µM (inactive) | 0.434 µM (active) | 1.85 µM (inactive) | 0.6 µM (active) | 0.321 µM (active) | 2.43 µM (inactive) | 0.409 µM (active) | 1.48 µM (inactive) | 0.818 µM (active) | 5.71 µM (inactive) | 3.81 µM (inactive) | 2.69 µM (inactive) | 4.97 µM (inactive) | 1.14 µM (inactive) | 0.273 µM (active) | 2.44 µM (inactive)
12 | Cc1ccccc1NC(=O)C(=O)C1CN(c2ccccc2)N=C1N (stereo unspecified) | > 100 µM (inactive) | > 100 µM (inactive) | > 100 µM (inactive) | > 100 µM (inactive) | > 100 µM (inactive) | > 100 µM (inactive) | > 100 µM (inactive) | > 100 µM (inactive) | > 100 µM (inactive) | > 100 µM (inactive) | > 100 µM (inactive) | > 100 µM (inactive) | > 100 µM (inactive) | > 100 µM (inactive) | > 100 µM (inactive) | > 100 µM (inactive) | > 100 µM (inactive) | > 100 µM (inactive) | > 100 µM (inactive) | 
13 | O=S(=O)(OI(O)CC(F)(F)F)C(F)(F)F | > 100 µM (inactive) | > 100 µM (inactive) | > 100 µM (inactive) | > 100 µM (inactive) | > 100 µM (inactive) | > 100 µM (inactive) | > 100 µM (inactive) | > 100 µM (inactive) | > 100 µM (inactive) | > 100 µM (inactive) | > 100 µM (inactive) | > 100 µM (inactive) | > 100 µM (inactive) | > 100 µM (inactive) |  | > 100 µM (inactive) | > 100 µM (inactive) | > 100 µM (inactive) | > 100 µM (inactive) | > 100 µM (inactive)
14 | CCCCCCCCCCCCCCCCOCC(O)CO (stereo unspecified) | 18.7 µM (inactive) | 16.8 µM (inactive) | 7.18 µM (inactive) | 16.6 µM (inactive) | 19 µM (inactive) | 10.3 µM (inactive) | 20.7 µM (inactive) |  | 13.3 µM (inactive) | 16.3 µM (inactive) | 17.1 µM (inactive) | 18.4 µM (inactive) | 17.3 µM (inactive) | 19.9 µM (inactive) | 24 µM (inactive) | 19.2 µM (inactive) | 19.6 µM (inactive) | 19.4 µM (inactive) | 17.6 µM (inactive) | 17.4 µM (inactive)
